Results taken from the NIST ThermoML archive (doi:10.1021/acs.jced.6b00526).

Test: xn = mol fraction of the nth substance listed
Settings: 100 kPa, Liquid; for mass density: Vibrating tube method; for viscosity: Falling or rolling sphere viscometry

OCCO [1,2-ethanediol] + O
Settings	mass density, 288.15 K [kg/m3]	mass density, 293.15 K [kg/m3]	mass density, 298.15 K [kg/m3]	mass density, 303.15 K [kg/m3]	mass density, 308.15 K [kg/m3]	mass density, 313.15 K [kg/m3]	mass density, 318.15 K [kg/m3]	viscosity, 293.15 K [mPa·s]	viscosity, 298.15 K [mPa·s]	viscosity, 303.15 K [mPa·s]
x2 = 0	–	1113.3	–	1106.8	–	1099.1	–	21.13	17.24	14.23
x2 = 0.1037	1114.7	1111.1	1108	1104.4	1100.5	1096.7	1093.8	–	–	–
x2 = 0.1105	–	–	–	–	–	–	–	17.58	14.33	11.86
x2 = 0.1593	1113.6	–	1106.9	–	1099.3	1095.4	1092.4	–	–	–
x2 = 0.2014	–	–	–	–	–	–	–	14.95	12.19	10.14
x2 = 0.2189	1111.9	1108.3	1105.2	1101.6	1097.6	1093.7	1090.7	–	–	–
x2 = 0.2669	–	1106.8	1103.6	1100.1	–	1092.1	–	–	–	–
x2 = 0.3002	–	–	–	–	–	–	–	12.4	10.18	8.45
x2 = 0.3165	1108.3	1104.8	1101.7	1098.2	1094.2	1090.3	1087.3	–	–	–
x2 = 0.3496	1106.8	–	1100.3	1096.8	1092.9	–	1086	–	–	–
x2 = 0.3994	1104.4	1101.1	1098	1094.4	1090.6	1086.9	1083.9	–	–	–
x2 = 0.4011	–	–	–	–	–	–	–	10.05	8.31	6.968
x2 = 0.4449	1101.8	1098.5	–	1092.2	1088.4	1084.6	1081.6	–	–	–
x2 = 0.4969	–	–	–	–	–	–	–	8.185	6.791	5.653
x2 = 0.5061	1098	1094.8	1091.8	1088.5	1084.7	1081.1	1078.1	–	–	–
x2 = 0.5563	1094.5	1091.4	1088.4	1085.1	1081.3	1077.8	1074.6	–	–	–
x2 = 0.6022	–	–	–	–	–	–	–	6.297	5.208	4.396
x2 = 0.6055	1090.6	1087.4	1084.5	1081.3	1077.6	1074	1071.1	–	–	–
x2 = 0.6518	1085.7	1082.6	1079.7	1076.5	1072.9	1069.5	1066.3	–	–	–
x2 = 0.6995	–	–	–	–	–	–	–	4.584	3.884	3.345
x2 = 0.7001	1079.8	1076.8	1073.7	1070.6	1067.3	1064	1060.7	–	–	–
x2 = 0.7482	1072.6	1069.7	1066.7	1063.7	1060.6	1057.4	1054.3	–	–	–
x2 = 0.7994	–	–	–	–	–	–	–	3.122	2.682	2.328
x2 = 0.8015	1063	1060.1	1057.4	1054.5	1051.5	1048.4	1045.6	–	–	–
x2 = 0.8444	1052.6	1050.2	1048	1045.5	1042.6	1039.6	1037.1	–	–	–
x2 = 0.8997	–	–	–	–	–	–	–	1.918	1.664	1.446
x2 = 0.901	1036.4	1034.6	1032.8	1030.7	1028	1025.4	1023.5	–	–	–

OCCCCO [1,4-butanediol] + O
Settings	mass density, 288.15 K [kg/m3]	mass density, 293.15 K [kg/m3]	mass density, 298.15 K [kg/m3]	mass density, 303.15 K [kg/m3]	mass density, 308.15 K [kg/m3]	mass density, 313.15 K [kg/m3]	mass density, 318.15 K [kg/m3]	viscosity, 293.15 K [mPa·s]	viscosity, 298.15 K [mPa·s]	viscosity, 303.15 K [mPa·s]
x2 = 0	1018.6	1016.3	1012.9	1009.9	1006.9	1003.2	1000.8	90.7	69.89	55.24
x2 = 0.0992	1020.8	1018.3	1014.8	1011.8	1008.9	1005.2	1002.6	–	–	–
x2 = 0.1257	–	–	–	–	–	–	–	75.28	57.95	45.05
x2 = 0.152	1021.8	1019.3	1015.8	1012.8	1009.8	1006.1	1003.4	–	–	–
x2 = 0.2039	1022.8	1020.3	1016.7	1013.7	1010.6	1006.9	1004.2	–	–	–
x2 = 0.2513	1023.6	1021.1	1017.6	1014.5	1011.4	1007.6	1004.9	–	–	–
x2 = 0.2783	–	–	–	–	–	–	–	58.11	44.52	33.59
x2 = 0.3003	1024.5	1021.9	1018.3	1015.2	1012.1	1008.3	1005.6	–	–	–
x2 = 0.3033	–	–	–	–	–	–	–	54.65	42	31.63
x2 = 0.3534	1025.3	1022.7	1019.1	1015.9	1012.8	1009	1006.3	–	–	–
x2 = 0.4009	–	–	–	–	–	–	–	44.04	33.94	25.07
x2 = 0.4399	1026.2	1023.6	1020	1016.8	1013.6	1009.8	1007.1	–	–	–
x2 = 0.4482	1026.6	1024	1020.3	1017.1	1013.9	1010.1	1007.3	–	–	–
x2 = 0.5008	–	–	–	–	–	–	–	33.85	25.34	18.65
x2 = 0.5011	1027.2	1024.5	1020.8	1017.7	1014.5	1010.6	1007.8	–	–	–
x2 = 0.5515	1027.6	1025	1021.1	1017.9	1014.8	1010.9	1008.1	–	–	–
x2 = 0.6114	1027.7	1025.1	1021.3	1018.2	1015.1	1011.2	1008.3	–	–	–
x2 = 0.6527	1027.6	1025	1021.3	1018.1	1015.1	1011.2	1008.4	–	–	–
x2 = 0.6662	–	–	–	–	–	–	–	19.58	13.9	10.11
x2 = 0.7003	–	–	–	–	–	–	–	16.6	11.57	8.774
x2 = 0.7005	1027.2	1024.5	1021	1017.8	1014.8	1011	1008.3	–	–	–
x2 = 0.7501	1026.3	1023.6	1020.1	1016.9	1013.9	1010.3	1007.4	–	–	–
x2 = 0.7998	1024.2	1021.5	1018.3	1015.3	1012.5	1008.9	1006.2	–	–	–
x2 = 0.8013	–	–	–	–	–	–	–	9.634	6.814	5.035
x2 = 0.8492	1021.3	1018.9	1015.8	1012.9	1010.2	1007.1	1004	–	–	–
x2 = 0.8979	–	–	–	–	–	–	–	4.127	3.267	2.369
x2 = 0.9001	1015.9	1014.1	1011.7	1009.2	1006.7	1003.6	1000.9	–	–	–
x2 = 0.9488	1008.1	1006.7	1004.7	1003.3	1001.1	998.7	996.2	–	–	–

OCCCCCO [1,5-pentanediol] + O
Settings	mass density, 288.15 K [kg/m3]	mass density, 293.15 K [kg/m3]	mass density, 298.15 K [kg/m3]	mass density, 303.15 K [kg/m3]	mass density, 308.15 K [kg/m3]	mass density, 313.15 K [kg/m3]	mass density, 318.15 K [kg/m3]	viscosity, 293.15 K [mPa·s]	viscosity, 298.15 K [mPa·s]	viscosity, 303.15 K [mPa·s]
x2 = 0	992.2	989.2	986.2	983.2	980.3	977.4	974.8	118.7	86.79	68.3
x2 = 0.1326	995.2	992.1	989	985.9	982.9	979.9	977.3	–	–	–
x2 = 0.2201	997	993.9	990.8	987.7	984.7	981.7	979	–	–	–
x2 = 0.2345	997.3	994.2	991	988	985	982	979.3	–	–	–
x2 = 0.2586	–	–	–	–	–	–	–	92.52	70.36	54.61
x2 = 0.3	–	–	–	–	–	–	–	85.43	65.59	51.03
x2 = 0.3001	998.6	995.5	992.4	989.3	986.3	983.3	980.6	–	–	–
x2 = 0.406	1000.7	997.6	994.5	991.4	988.5	985.5	982.8	–	–	–
x2 = 0.4864	–	–	–	–	–	–	–	51.43	39.51	31
x2 = 0.4969	1002.6	999.5	996.4	993.4	990.5	987.6	985	49.66	38.56	30.24
x2 = 0.5262	1003.2	1000.2	997.1	994.1	991.2	988.3	985.7	–	–	–
x2 = 0.5488	1003.7	1000.7	997.7	994.7	991.8	988.9	986.3	–	–	–
x2 = 0.6032	1004.8	1001.9	998.9	996	993.1	990.2	987.6	–	–	–
x2 = 0.6777	–	–	–	–	–	–	–	25.01	19.75	15.78
x2 = 0.7012	1006.6	1003.8	1000.9	998	995.2	992.3	989.8	–	–	–
x2 = 0.7611	–	–	–	–	–	–	–	16.1	12.71	10.16
x2 = 0.7745	1007.1	1004.6	1001.9	999.1	996.4	993.7	991.2	–	–	–
x2 = 0.8051	1007	1004.6	1002.1	999.5	996.7	994.1	991.6	–	–	–
x2 = 0.8474	–	–	–	–	–	–	–	8.205	6.627	5.439
x2 = 0.8998	1005.3	1003.2	1000.9	998.6	996.3	993.9	992	–	–	–
x2 = 0.9205	–	–	–	–	–	–	–	3.733	3.103	2.615
